Tests used:
human melanocytes = assay: proliferation of human melanocytes cultured with hormones (cell counting, proliferation and apoptosis tests); format: cell-based; conditions: analysed after 9 days
Description: In a series of experiments, the influence of chlormadinone acetate (CMA) on the proliferation or pigment formation of human melanocytes was examined. To this end, human melanocytes were cultured in each case in the corresponding culture medium, which in each case contained different quantities of ethinyl oestradiol (EO), chlormadinone acetate (CMA) or a combination thereof. The individual compositions are summarised below in Table 1. [table] After 9 days the human melanocytes were analysed in vitro. Cell growth and cell death were determined by cell counting by means of Typan blue staining and by commercial cell proliferation and apoptosis tests. Pigment formation was determined both by measuring the melanin concentration of the cells and by measuring tyrosinase, the key enzyme in pigment formation.

tyrosinase = assay: pigment formation of human melanocytes: tyrosinase activity; format: cell-based; conditions: 1 nM as the sole hormone in the culture medium; analysed after 9 days
Description: In a series of experiments, the influence of chlormadinone acetate (CMA) on the proliferation or pigment formation of human melanocytes was examined.
To this end, human melanocytes were cultured in each case in the corresponding culture medium, which in each case contained different quantities of ethinyl oestradiol (EO), chlormadinone acetate (CMA) or a combination thereof. The individual compositions are summarised below in Table 1.
After 9 days the human melanocytes were analysed in vitro. Cell growth and cell death were determined by cell counting by means of Typan blue staining and by commercial cell proliferation and apoptosis tests. Pigment formation was determined both by measuring the melanin concentration of the cells and by measuring tyrosinase, the key enzyme in pigment formation.

Structure (SMILES): CC(=O)O[C@]1(C(C)=O)CC[C@H]2[C@@H]3C=C(Cl)C4=CC(=O)CC[C@]4(C)[C@H]3CC[C@@]21C [chlormadinone acetate]
- reduction of the proliferation rate of human melanocytes (human melanocytes; 100 nM in the culture medium): 50-70%

Structure (SMILES): C#C[C@]1(O)CC[C@H]2[C@@H]3CCc4cc(O)ccc4[C@H]3CC[C@@]21C [ethinyl oestradiol]
- proliferation of human melanocytes (human melanocytes; 1 nM as the sole hormone in the culture medium): increased
- tyrosinase activity of human melanocytes (tyrosinase): increased

From patent publication US8361995B2, “Drug comprising at least one gestagen” (Richter Gedeon Nyrt., priority 2007, dated 2013)
